Patent publication US20100087649A1, “QUINOLINONE DERIVATIVES” (priority 2006, published 2010)

Assays:
[1] = system: wild-type HIV-IIIB strain; test: Antiviral analysis EGFP: anti-HIV activity in MT4 LTR-EGFP cells; type: cell-based, HIV-1; settings: fluorescence of HIV-infected cells reduced by 50%, three days after infection
Description: The compounds of the present invention were tested for anti-viral activity in a cellular assay, which was performed according to the following procedure.
The human T-cell line MT4 is engineered with Green Fluorescent Protein (GFP) and an HIV-specific promoter, HIV-1 long terminal repeat (LTR). This cell line is designated MT4 LTR-EGFP, and can be used for the in vitro evaluation of anti-HIV activity of investigational compounds. In HIV-1 infected cells, the Tat protein is produced which upregulates the LTR promotor and finally leads to stimulation of the GFP reporter production, allowing measuring ongoing HIV-infection fluorometrically.
(§1) Effective concentration values such as 50% effective concentration (EC50) can be determined and are usually expressed in μM. An EC50 value is defined as the concentration of test compound that reduces the fluorescence of HIV-infected cells by 50%. The 50% cytotoxic concentration (CC50 in μM) is defined as the concentration of test compound that reduces fluorescence of the mock-infected cells by 50%. The ratio of CC50 to EC50 is defined as the selectivity index (SI) and is an indication of the selectivity of the anti-HIV activity of the inhibitor. The ultimate monitoring of HIV-1 infection and cytotoxicity is done using a scanning microscope. Image analysis allows very sensitive detection of viral infection. Measurements are done before cell necrosis, which usually takes place about five days after infection, in particular measurements are performed three days after infection.
The following Table 5 lists EC50 values, expressed in micromole/liter, against wild-type HIV-IIIB strain, for a selected number of compounds of the invention.

[2] = system: MT4 CMV-EGFP cells; test: Cytotoxicity in mock-infected MT4 CMV-EGFP cells; type: cell-based, human; settings: fluorescence reduced by 50%
Description: Analogously, MT4 cells are engineered with GFP and the constitutional cytomegalovirus (CMV) promotor. This cell line is designated MT4 CMV-EGFP, and can be used for the in vitro evaluation of cytotoxicity of investigational compounds. In this cell line, GFP levels are comparably to those of infected MT4 LTR-EGFP cells. Cytotoxic investigational compounds reduce GFP levels of mock-infected MT4 CMV-EGFP cells.
as §1

| SMILES | EC50 [1] | CC50 [2] |
| --- | --- | --- |
| N#Cc1cc2ccc(-c3ncco3)cc2n(-c2ccc([N+](=O)[O-])cc2)c1=O [compound 79] | 0.12 µM | – |
| N#Cc1cc2ccc(O)cc2n(-c2ccc(Cl)nc2)c1=O [compound 91] | > 32 µM | > 32 µM |
| N#Cc1c(N)c2ccccc2n(-c2ccc(Cl)nc2)c1=O [compound 104] | 19.5 µM | > 32 µM |
| CC(=O)NCCCOc1ccc2cc(C#N)c(=O)n(-c3ccc([N+](=O)[O-])cc3)c2c1 [compound 69] | 10.2 µM | > 100 µM |
| N#Cc1c(N)c2ccc(Cl)cc2n(-c2ccc(Cl)c(F)c2)c1=O [compound 105] | > 100 µM | > 100 µM |
| N#Cc1cc2ccc(OCCN3CCNCC3)cc2n(-c2ccc([N+](=O)[O-])cc2)c1=O [compound 61] | 3.65 µM | > 32 µM |
| CCN(CC)CCOc1ccc2cc(C#N)c(=O)n(-c3ccc([N+](=O)[O-])cc3)c2c1 [compound 59] | 12.9 µM | > 32 µM |
| CNc1c(C#N)c(=O)n(-c2ccc(C)c(C#N)c2)c2ccccc12 [compound 165] | 7.94 µM | > 100 µM |
| Cc1ccc(-n2c(=O)c(C#N)c(N)c3ccccc32)cc1C#N [compound 166] | 3.01 µM | > 100 µM |
| N#Cc1ccc2cc(C#N)c(=O)n(-c3ccc([N+](=O)[O-])cc3)c2c1 [compound 96] | 13.5 µM | > 100 µM |
| N#Cc1cc2ccc(-c3ccc(C(N)=O)cc3)cc2n(-c2ccc([N+](=O)[O-])cc2)c1=O [compound 35] | 1.71 µM | 22.6 µM |
| Cc1ccc(-n2c(=O)c(C#N)cc3ccc(-c4cccc(CO)c4)cc32)cc1C#N [compound 156] | 2.58 µM | 64.9 µM |
| N#Cc1cc2ccc(OCCCNCCO)cc2n(-c2ccc([N+](=O)[O-])cc2)c1=O [compound 72] | 0.93 µM | > 32 µM |
| CNCCCNc1ccc2cc(C#N)c(=O)n(-c3ccc([N+](=O)[O-])cc3)c2c1 [compound 22] | 0.36 µM | 88.7 µM |
| N#Cc1cc2ccc(-c3ccccn3)cc2n(-c2ccc([N+](=O)[O-])cc2)c1=O [compound 82] | 0.54 µM | > 100 µM |
| Cc1ccc(-n2c(=O)c(C#N)cc3ccc(-c4cccn4C)cc32)cc1C#N [compound 154] | 10 µM | > 100 µM |
| N#Cc1c(N)c2ccc(Cl)cc2n(-c2ccc3nonc3c2)c1=O [compound 113] | 2.73 µM | > 100 µM |
| N#Cc1cc2ccc(NCCN3CCOCC3)cc2n(-c2ccc([N+](=O)[O-])cc2)c1=O [compound 14] | 4.08 µM | > 32 µM |
| CN(C)CCCOc1ccc2c(c1)cc(C#N)c(=O)n2-c1ccc([N+](=O)[O-])cc1 [compound 85] | 1.15 µM | > 32 µM |
| N#Cc1c(NCCCO)c2ccccc2n(-c2ccc([N+](=O)[O-])cc2)c1=O [compound 138] | 12 µM | > 100 µM |
| CC(=O)NCc1cccc(-c2ccc3cc(C#N)c(=O)n(-c4ccc(C)c(C#N)c4)c3c2)c1 [compound 151] | 2.22 µM | > 100 µM |
| N#Cc1cc2ccc(-c3cccc(O)c3)cc2n(-c2ccc([N+](=O)[O-])cc2)c1=O [compound 32] | 0.65 µM | > 100 µM |
| COc1ccc2c(N)c(C#N)c(=O)n(-c3ccc([N+](=O)[O-])cc3)c2c1 [compound 116] | 0.78 µM | > 100 µM |
| N#Cc1c(N)c2cccnc2n(-c2ccc([N+](=O)[O-])cc2)c1=O [compound 129] | 18.3 µM | > 32 µM |
| N#Cc1cc2ccc(NCC3CCNC3)cc2n(-c2ccc([N+](=O)[O-])cc2)c1=O (stereo not drawn) [compound 18] | 4.43 µM | > 32 µM |

| SMILES | EC50 [1] | CC50 [2] |
| --- | --- | --- |
| N#Cc1cc2ccc(-c3cscn3)cc2n(-c2ccc([N+](=O)[O-])cc2)c1=O [compound 81] | 0.15 µM | > 100 µM |
| N#Cc1c(NCCc2c[nH]cn2)c2ccccc2n(-c2ccc([N+](=O)[O-])cc2)c1=O [compound 144] | 3.84 µM | > 100 µM |
| CN(C)C(=O)c1ccc(-c2ccc3cc(C#N)c(=O)n(-c4ccc([N+](=O)[O-])cc4)c3c2)cc1 [compound 40] | 0.95 µM | > 100 µM |
| N#Cc1c(NCCCn2ccnc2)c2ccccc2n(-c2ccc([N+](=O)[O-])cc2)c1=O [compound 140] | > 100 µM | > 100 µM |
| CC(=O)NCc1cccc(-c2ccc3cc(C#N)c(=O)n(-c4ccc([N+](=O)[O-])cc4)c3c2)c1 [compound 43] | 0.93 µM | > 100 µM |
| N#Cc1c(NCc2ccccn2)c2ccccc2n(-c2ccc([N+](=O)[O-])cc2)c1=O [compound 131] | 15.9 µM | > 100 µM |
| N#Cc1cc2ccc(NCCCN3CCCC3)cc2n(-c2ccc([N+](=O)[O-])cc2)c1=O [compound 21] | 0.21 µM | 69.5 µM |
| N#Cc1cc2cc(OC[C@@H]3CCCN3)ccc2n(-c2ccc([N+](=O)[O-])cc2)c1=O [compound 88] | 1.41 µM | 6.54 µM |
| N#Cc1cc2ccc(OCCCO)cc2n(-c2ccc([N+](=O)[O-])cc2)c1=O [compound 76] | 1.03 µM | > 100 µM |
| N#Cc1cc2ccc(-c3cccc(N)c3)cc2n(-c2ccc([N+](=O)[O-])cc2)c1=O [compound 37] | 0.42 µM | > 100 µM |
| N#Cc1cc2cc(OCCN)ccc2n(-c2ccc([N+](=O)[O-])cc2)c1=O [compound 86] | 1.18 µM | > 32 µM |
| N#Cc1cc2ccc(-c3cccc(CN)c3)cc2n(-c2ccc([N+](=O)[O-])cc2)c1=O [compound 30] | 0.63 µM | 24.7 µM |
| N#Cc1cc2cc3c(cc2n(-c2ccc(Cl)nc2)c1=O)OCO3 [compound 97] | > 32 µM | > 32 µM |
| CN(C)CCOc1ccc2c(c1)cc(C#N)c(=O)n2-c1ccc([N+](=O)[O-])cc1 [compound 90] | 0.89 µM | > 32 µM |
| N#Cc1cc2ccc(NCCCN)cc2n(-c2ccc([N+](=O)[O-])cc2)c1=O [compound 19] | 0.91 µM | 30.6 µM |
| N#Cc1c(NCC2CCNC2)c2ccccc2n(-c2ccc([N+](=O)[O-])cc2)c1=O (stereo not drawn) [compound 143] | 11.3 µM | > 100 µM |
| CN(C)CCCNc1c(C#N)c(=O)n(-c2ccc([N+](=O)[O-])cc2)c2ccccc12 [compound 139] | 2.16 µM | 59.5 µM |
| CC(=O)Nc1cccc(-c2ccc3cc(C#N)c(=O)n(-c4ccc([N+](=O)[O-])cc4)c3c2)c1 [compound 39] | 51.3 µM | > 100 µM |
| N#Cc1c(NCCN)c2ccccc2n(-c2ccc([N+](=O)[O-])cc2)c1=O [compound 133] | 0.23 µM | 20.1 µM |
| N#Cc1cc2ccc(OCCCN3CCOCC3)cc2n(-c2ccc([N+](=O)[O-])cc2)c1=O [compound 56] | 1.4 µM | > 32 µM |
| N#Cc1cc2ccc(OCCCN3CCCC3)cc2n(-c2ccc([N+](=O)[O-])cc2)c1=O [compound 73] | 0.42 µM | 36.4 µM |
| N#Cc1cc2ccc(OCCN3CCCC3)cc2n(-c2ccc([N+](=O)[O-])cc2)c1=O [compound 52] | 2.45 µM | > 32 µM |
| N#Cc1cc2ccc(-c3nccs3)cc2n(-c2ccc([N+](=O)[O-])cc2)c1=O [compound 80] | 0.13 µM | 5.02 µM |
| Cc1ccc(-n2c(=O)c(C#N)cc3ccc(-c4cscn4)cc32)cc1C#N [compound 160] | 0.33 µM | – |
